Source: PubChem BioAssay (NCI)
“And” between values parts separate entries of the source, which are not always exact repeats. Identical values can stand only once.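 How tested: cells in 96-well plates exposed to compound for 48 hours at five concentrations. Abbreviation: GI50, concentration required for 50% inhibition of growth. At the TGI there is no net growth.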

Legend:
Test in all cases: DTP human tumour cell line panel, 48 h
CAKI-1 renal = test system: CAKI-1 renal
HOP-18 NSCLC = test system: HOP-18 NSCLC
U251 CNS = test system: U251 CNS
SW-620 colon = test system: SW-620 colon
SR leukemia = test system: SR leukemia
OVCAR-3 ovarian = test system: OVCAR-3 ovarian
SK-MEL-5 melanoma = test system: SK-MEL-5 melanoma
EKVX NSCLC = test system: EKVX NSCLC
NCI-H226 lung = test system: NCI-H226 lung
MALME-3M melanoma = test system: MALME-3M melanoma
SF-539 CNS = test system: SF-539 CNS
SK-OV-3 ovarian = test system: SK-OV-3 ovarian
MCF7 breast = test system: MCF7 breast
OVCAR-4 ovarian = test system: OVCAR-4 ovarian
A498 renal = test system: A498 renal
LOX IMVI melanoma = test system: LOX IMVI melanoma
UACC-62 melanoma = test system: UACC-62 melanoma
RXF 393 renal = test system: RXF 393 renal
SK-MEL-28 melanoma = test system: SK-MEL-28 melanoma
M14 melanoma = test system: M14 melanoma
IGROV1 ovarian = test system: IGROV1 ovarian
DMS 114 small cell lung = test system: DMS 114 small cell lung
SN12C renal = test system: SN12C renal
786-0 renal = test system: 786-0 renal
RXF-631 renal = test system: RXF-631 renal
UO-31 renal = test system: UO-31 renal
MOLT-4 leukemia = test system: MOLT-4 leukemia
HCC-2998 colon = test system: HCC-2998 colon
COLO 205 colon = test system: COLO 205 colon
HS 578T breast = test system: HS 578T breast
HOP-92 NSCLC = test system: HOP-92 NSCLC
UACC-257 melanoma = test system: UACC-257 melanoma
TK-10 renal = test system: TK-10 renal
SNB-19 CNS = test system: SNB-19 CNS
HT29 colon = test system: HT29 colon
OVCAR-5 ovarian = test system: OVCAR-5 ovarian
HCT-15 colon = test system: HCT-15 colon
MDA-MB-231 breast = test system: MDA-MB-231 breast
PC-3 prostate = test system: PC-3 prostate
SF-268 CNS = test system: SF-268 CNS
A549 NSCLC = test system: A549 NSCLC
ACHN renal = test system: ACHN renal
SNB-78 CNS = test system: SNB-78 CNS
DMS 273 small cell lung = test system: DMS 273 small cell lung
OVCAR-8 ovarian = test system: OVCAR-8 ovarian
HCT-116 colon = test system: HCT-116 colon
LXFL 529 NSCLC = test system: LXFL 529 NSCLC
NCI-H460 lung = test system: NCI-H460 lung
KM12 colon = test system: KM12 colon
HOP-62 NSCLC = test system: HOP-62 NSCLC
M19-MEL melanoma = test system: M19-MEL melanoma
T-47D breast = test system: T-47D breast
SK-MEL-2 melanoma = test system: SK-MEL-2 melanoma
KM20L2 colon = test system: KM20L2 colon
DLD-1 colon = test system: DLD-1 colon
CCRF-CEM leukemia = test system: CCRF-CEM leukemia
RPMI-8226 leukemia = test system: RPMI-8226 leukemia
NCI-H522 lung = test system: NCI-H522 lung
MDA-MB-435 = test system: MDA-MB-435
BT-549 breast = test system: BT-549 breast
SF-295 CNS = test system: SF-295 CNS
HL-60(TB) leukemia = test system: HL-60(TB) leukemia
DU-145 prostate = test system: DU-145 prostate
K-562 leukemia = test system: K-562 leukemia
SNB-75 CNS = test system: SNB-75 CNS
NCI-H23 lung = test system: NCI-H23 lung

## CCCCNCCCNCCCNC(=O)c1csc(-c2csc(CCNC(=O)C(NC(=O)C(C)C(O)C(C)NC(=O)C(NC(=O)c3nc(C(CC(N)=O)NCC(N)C(N)=O)nc(N)c3C)C(OC3OC(CO)C(O)C(O)C3OC3OC(CO)C(O)C(OC(N)=O)C3O)c3cnc[nH]3)C(C)O)n2)n1 (stereo not drawn)
CAKI-1 renal
  TGI: 50 µM and 17 µM
HOP-18 NSCLC
  TGI: > 100 µM
U251 CNS
  GI50: 0.807 µM
  TGI: 50 µM and 8.07 µM
SW-620 colon
  GI50: 11 µM
  TGI: 50 µM and > 100 µM
SR leukemia
  GI50: 7.28 µM
  TGI: 50 µM and > 100 µM
OVCAR-3 ovarian
  GI50: 30.3 µM
  TGI: 50 µM and 22.9 µM
SK-MEL-5 melanoma
  GI50: 3.14 µM
  TGI: 50 µM and 11.6 µM
EKVX NSCLC
  GI50: > 50 µM
  TGI: > 50 µM and 61.8 µM
NCI-H226 lung
  GI50: 0.477 µM
MALME-3M melanoma
  GI50: 0.697 µM
  TGI: 16.9 µM
SF-539 CNS
  GI50: 0.0449 µM
  TGI: 0.357 µM and 0.235 µM
SK-OV-3 ovarian
  GI50: 9.49 µM
  TGI: 50 µM and 36.2 µM
MCF7 breast
  TGI: 37.7 µM
OVCAR-4 ovarian
  GI50: 0.459 µM
A498 renal
  GI50: 1.25 µM
  TGI: 50 µM and 28.1 µM
LOX IMVI melanoma
  GI50: 0.194 µM
  TGI: 7.15 µM and 6.49 µM
UACC-62 melanoma
  GI50: 0.68 µM
  TGI: 11.8 µM and 4.8 µM
RXF 393 renal
  GI50: 0.443 µM and 0.171 µM
  TGI: 2.66 µM and 1.15 µM
SK-MEL-28 melanoma
  GI50: > 50 µM
  TGI: > 75.7 µM
M14 melanoma
  GI50: 34.3 µM
  TGI: 50 µM and 15.9 µM
IGROV1 ovarian
  GI50: 20.9 µM
  TGI: 50 µM and > 84 µM
DMS 114 small cell lung
  TGI: 8.73 µM
SN12C renal
  GI50: 1.13 µM
  TGI: 50 µM and 8.53 µM
786-0 renal
  GI50: 1.46 µM
  TGI: 50 µM and 5.24 µM
RXF-631 renal
  TGI: > 100 µM
UO-31 renal
  TGI: 15.8 µM and 3.81 µM
MOLT-4 leukemia
  GI50: 1.22 µM
  TGI: 50 µM and > 27.1 µM
HCC-2998 colon
  GI50: 15.9 µM
  TGI: 50 µM and > 100 µM
COLO 205 colon
  GI50: 26.6 µM
  TGI: 50 µM and > 89.1 µM
HS 578T breast
  TGI: 50 µM
HOP-92 NSCLC
  TGI: 1.79 µM
UACC-257 melanoma
  GI50: 0.106 µM
TK-10 renal
  GI50: > 50 µM
  TGI: > 50 µM and 58.2 µM
SNB-19 CNS
  TGI: 50 µM and > 65.7 µM
HT29 colon
  GI50: 1.73 µM
  TGI: 50 µM and > 100 µM
OVCAR-5 ovarian
  GI50: 5.86 µM
  TGI: 50 µM and > 44.5 µM
HCT-15 colon
  GI50: 2.12 µM
MDA-MB-231 breast
  TGI: 50 µM
PC-3 prostate
  TGI: 50 µM
SF-268 CNS
  GI50: 3.16 µM
  TGI: 50 µM and 15.2 µM
A549 NSCLC
  GI50: 1.13 µM
  TGI: 10.3 µM and 22.9 µM
ACHN renal
  GI50: 0.0491 µM
SNB-78 CNS
  TGI: > 100 µM
DMS 273 small cell lung
  TGI: 2.97 µM
OVCAR-8 ovarian
  GI50: 0.908 µM
  TGI: 12.1 µM and 40.4 µM
HCT-116 colon
  GI50: 0.427 µM
  TGI: 50 µM and 14.2 µM
LXFL 529 NSCLC
  TGI: > 100 µM
NCI-H460 lung
  GI50: 0.0396 µM
  TGI: 5.22 µM and 13 µM
KM12 colon
  GI50: > 50 µM
  TGI: > 100 µM
HOP-62 NSCLC
  GI50: 0.109 µM
  TGI: 8.65 µM
M19-MEL melanoma
  TGI: > 100 µM
T-47D breast
  TGI: 50 µM
SK-MEL-2 melanoma
  TGI: 17.3 µM
KM20L2 colon
  TGI: > 100 µM
DLD-1 colon
  TGI: > 100 µM
CCRF-CEM leukemia
  GI50: 6.4 µM
  TGI: 50 µM and > 100 µM
RPMI-8226 leukemia
  GI50: 19.7 µM
  TGI: > 100 µM
NCI-H522 lung
  TGI: 7.96 µM and 10.1 µM
MDA-MB-435
  TGI: 50 µM
BT-549 breast
  TGI: > 50 µM
SF-295 CNS
  TGI: 1.76 µM
HL-60(TB) leukemia
  GI50: 3.4 µM
  TGI: 50 µM and > 100 µM
DU-145 prostate
  TGI: 50 µM
K-562 leukemia
  GI50: 19.6 µM
  TGI: 50 µM and > 100 µM
SNB-75 CNS
  GI50: 0.0257 µM
  TGI: 0.716 µM and 3.37 µM
NCI-H23 lung
  GI50: 0.269 µM
  TGI: 7.42 µM and 2.2 µM
